{
  "source": "patent US6476012B2",
  "about": "“Estradiol-16α-carboxylic acid esters as locally active estrogens” (Yale University, priority 2001, dated 2002)",
  "origin": "cited, not measured here",
  "key": {"classical ER, ERα": {"target": "T1, classical ER, ERα (Homo sapiens, UniProt P03372)", "T1 sequence (P03372 1-595)": "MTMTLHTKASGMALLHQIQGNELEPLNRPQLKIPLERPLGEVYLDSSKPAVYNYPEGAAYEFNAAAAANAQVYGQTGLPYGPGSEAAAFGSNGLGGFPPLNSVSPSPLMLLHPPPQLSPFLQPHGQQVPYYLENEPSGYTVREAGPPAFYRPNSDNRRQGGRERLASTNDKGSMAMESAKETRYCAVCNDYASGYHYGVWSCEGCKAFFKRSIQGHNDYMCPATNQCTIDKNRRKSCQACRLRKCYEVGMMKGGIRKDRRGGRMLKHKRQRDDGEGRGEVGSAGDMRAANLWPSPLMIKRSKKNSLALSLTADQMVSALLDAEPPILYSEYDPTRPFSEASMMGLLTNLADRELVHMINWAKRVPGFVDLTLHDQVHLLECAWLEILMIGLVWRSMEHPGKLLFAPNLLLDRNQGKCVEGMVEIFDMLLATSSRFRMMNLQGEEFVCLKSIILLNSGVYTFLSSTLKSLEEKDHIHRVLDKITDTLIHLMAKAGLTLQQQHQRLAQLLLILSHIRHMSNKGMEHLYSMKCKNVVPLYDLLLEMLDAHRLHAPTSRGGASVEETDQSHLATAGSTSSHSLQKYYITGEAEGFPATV", "details": "previously reported; cited from earlier work"}, "ERβ": {"target": "ERβ (Homo sapiens, UniProt Q92731)", "sequence (Q92731 whole entry, species assumed)": "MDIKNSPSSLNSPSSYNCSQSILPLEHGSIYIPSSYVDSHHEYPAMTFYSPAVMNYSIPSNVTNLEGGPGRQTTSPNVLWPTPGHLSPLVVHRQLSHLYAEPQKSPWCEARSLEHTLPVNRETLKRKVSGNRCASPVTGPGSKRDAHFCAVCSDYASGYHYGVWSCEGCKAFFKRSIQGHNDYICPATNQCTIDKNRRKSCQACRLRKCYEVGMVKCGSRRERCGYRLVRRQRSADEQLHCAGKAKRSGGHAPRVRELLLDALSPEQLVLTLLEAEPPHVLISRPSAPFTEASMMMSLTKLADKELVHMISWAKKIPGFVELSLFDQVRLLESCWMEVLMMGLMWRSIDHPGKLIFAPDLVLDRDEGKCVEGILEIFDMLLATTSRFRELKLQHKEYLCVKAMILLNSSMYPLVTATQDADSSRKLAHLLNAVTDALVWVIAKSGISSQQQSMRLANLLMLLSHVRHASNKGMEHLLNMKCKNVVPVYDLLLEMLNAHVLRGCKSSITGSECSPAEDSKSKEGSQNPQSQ", "details": "previously reported; cited from earlier work"}},
  "data": [
    {"smiles": "C[C@]12CC[C@@H]3c4ccc(O)cc4CC[C@H]3[C@@H]1C[C@@H](I)[C@@H]2O", "note": "[16α-iodoestradiol]", "values": [
      {"measurement": "binding to ERα", "setting": "classical ER, ERα", "value": "binds with high affinity"},
      {"measurement": "binding to ERβ", "setting": "ERβ", "value": "binds only poorly"}
    ]}
  ]
}
